Measured values taken from patent US5874442A, “Tricyclic amides useful for inhibition of G-protein function and for treatment of proliferative disease” (Schering-Plough Corporation, priority 1996, dated 1999).

Experiments:
[1] = test system: DLD-1 (human colon carcinoma cells); assay: In vivo anti-tumor studies, subcutaneous DLD-1 tumors in athymic nu/nu mice; design: species or system athymic nu/nu female mice; conditions: Mus musculus, DLD-1, po, […], read-out: Average % Tumor Inhibition
Procedure: Tumor bearing animals are selected and randomized when the tumors are established. Animals are treated with vehicle (β-cyclodextrin for i.p. or corn oil for p.o.) only or with a compound of the present invention in vehicle four times a day (QID) for 7 days per week for 4 weeks. The percent inhibition of tumor growth relative to vehicle controls is determined by tumor measurements.

DLD 1 = assay: Soft agar assay; assay type: cell-based; conditions: Homo sapiens; DLD 1 (colon) K ras mutation; read-out: IC50, inhibition of human tumor cell growth, soft agar
Procedure: (§1) Anchorage-independent growth is a characteristic of tumorigenic cell lines. Human tumor cells are suspended in growth medium containing 0.3% agarose and an indicated concentration of a farnesyl transferase inhibitor. The solution is overlayed onto growth medium solidified with 0.6% agarose containing the same concentration of farnesyl transferase inhibitor as the top layer. After the top layer is solidified, plates are incubated for 10-16 days at 37° C. under 5% CO2 to allow colony outgrowth. After incubation, the colonies are stained by overlaying the agar with a solution of MTT (3-[4,5-dimethylthiazol-2-yl]-2,5-diphenyltetrazolium bromide, Thiazolyl blue) (1 mg/mL in PBS). Colonies are counted and the IC50's determined.

MDA MB453 (breast) = assay: Soft agar assay; assay type: cell-based; conditions: Homo sapiens, MDA-MB-453, read-out: IC50, inhibition of human tumor cell growth, soft agar
Procedure: as §1

Du4475 = assay: Soft agar assay; assay type: cell-based; conditions: Homo sapiens, DU-4475; Du4475 (breast) ras mut. not detected; read-out: IC50, inhibition of human tumor cell growth, soft agar
Procedure: as §1

BT474 (breast) = assay: Soft agar assay; assay type: cell-based; conditions: Homo sapiens, BT-474, read-out: IC50, inhibition of human tumor cell growth, soft agar
Procedure: as §1

MCF-7 = assay: Soft agar assay; assay type: cell-based; conditions: Homo sapiens, MCF7; MCF-7 (breast) ras mut. not detected; read-out: IC50, inhibition of human tumor cell growth, soft agar
Procedure: as §1

DU 145 = assay: Soft agar assay; assay type: cell-based; conditions: Homo sapiens; DU 145 (prostate) ras mut. not detected; read-out: IC50, inhibition of human tumor cell growth, soft agar
Procedure: as §1

HTB 183 (NCI H661) = assay: Soft agar assay; assay type: cell-based; conditions: Homo sapiens; HTB 183 (NCI H661) (NSCLC) ras mut. not detected; read-out: IC50, inhibition of human tumor cell growth, soft agar
Procedure: as §1

HBL100 = assay: Soft agar assay; assay type: cell-based; conditions: Homo sapiens, HBL-100; HBL100 (breast) ras mut. not detected; read-out: IC50, inhibition of human tumor cell growth, soft agar
Procedure: as §1

HTB 119 (NCI H69) = assay: Soft agar assay; assay type: cell-based; conditions: Homo sapiens; HTB 119 (NCI H69) (SCLC); read-out: IC50, inhibition of human tumor cell growth, soft agar
Procedure: as §1

MDA MB 468 = assay: Soft agar assay; assay type: cell-based; conditions: Homo sapiens; MDA MB 468 (breast) ras mut. not detected; read-out: IC50, inhibition of human tumor cell growth, soft agar
Procedure: as §1

HPAF II = assay: Soft agar assay; assay type: cell-based; conditions: Homo sapiens; HPAF II (pancreatic) K ras mutation; read-out: IC50, inhibition of human tumor cell growth, soft agar
Procedure: as §1

PC3 (prostate) = assay: Soft agar assay; assay type: cell-based; conditions: Homo sapiens, read-out: IC50, inhibition of human tumor cell growth, soft agar
Procedure: as §1

AsPc-1 = assay: Soft agar assay; assay type: cell-based; conditions: Homo sapiens, ASPC1; AsPc-1 (pancreatic) K ras mutation; read-out: IC50, inhibition of human tumor cell growth, soft agar
Procedure: as §1

HTB 173 (NCI H146) = assay: Soft agar assay; assay type: cell-based; conditions: Homo sapiens; HTB 173 (NCI H146) (SCLC) ras mut. not detected; read-out: IC50, inhibition of human tumor cell growth, soft agar
Procedure: as §1

[2] = test system: DLD-1-BAG human colon carcinoma cells; assay: Cell mat assay, DLD-1-BAG tumor cells; assay type: cell-based; conditions: Homo sapiens, DLD-1, 336 h, read-out: Tumor (DLD-1) IC50
Procedure: Compound-induced colony inhibition was assayed by addition of serial dilutions of compound directly to the growth medium 24 h after tumor cell planting, and incubating cells for an additional 14 d to allow colony formation. Assays were terminated by rinsing monolayers twice with phosphate-buffered saline (PBS), fixing the monolayers with a 1% glutaraldehyde solution in PBS, then visualizing tumor cells by staining with X-Gal (Price, J., et al., Lineage analysis in the vertebrate nervous system by retrovirus-mediated gene transfer, Proc. Natl. Acad. Sci.84, 156-160(1987)). […] Both IC50 values were obtained by determining the density of tumor cells and mat cells by visual inspection and enumeration of cells per colony and the number of colonies under the microscope.
Additional assays were carried out by following essentially the same procedure as described above, but with substitution of alternative indicator tumor cell lines in place of the T24-BAG cells. The assays were conducted using either DLD-1-BAG human colon carcinoma cells expressing as activated K-ras gene or SW620-BAG human colon carcinoma cells expressing an activated K-ras gene.

Compound: NC(=O)N1CCC(CC(=O)N2CCC([C@H]3c4ncc(Br)cc4CCc4cc(Cl)cc(Br)c43)CC2)CC1 [Example 10]
- inhibition in vivo at 10 mg/kg [1]: 49%
- inhibition in vivo at 50 mg/kg [1]: 77%
- IC50 (DLD 1): 2500 nM
- IC50 (MDA MB453 (breast)): 600 nM
- IC50 (Du4475): 600 nM
- IC50 (BT474 (breast)): 1000 nM
- IC50 (MCF-7): < 600 nM
- IC50 (DU 145): 600 nM
- IC50 (HTB 183 (NCI H661)): 500 nM
- IC50 (HBL100): < 600 nM
- IC50 (HTB 119 (NCI H69)): 300 nM
- IC50 (MDA MB 468): 600 nM
- IC50 (HPAF II): < 500 nM
- IC50 (PC3 (prostate)): 1250 nM
- IC50 (AsPc-1): 3000 nM
- IC50 (HTB 173 (NCI H146)): 50 nM
- IC50 [2]: < 1600 nM
